From patent publication US20040096941A1, “Receptor for plant cell growth factor” (priority 2002, published 2004)
One block for each molecule: values may come before it. Square brackets hold non-standard residues; d marks the D form. Side chains are listed from the residue outwards. Ends that are not written are not given here. Peptide text beside a SMILES is read from it. sY = N[C@@H](Cc1ccc(OS(=O)(=O)O)cc1)C(=O)O; Ahx = NCCCCCC(=O)O

What was measured:
[1] = target: T1, PSK receptor (120-kD receptor kinase) (Daucus carota, UniProt Q8LPB4); experiment: inhibition of [3H]PSK binding to the membrane fraction of the sense transformant by unlabelled competitors; parameters: species or system carrot; conditions: 6.3 nM [3H]PSK, 3.2 μM unlabelled competitor
T1 construct: The inserted portion (i.e., full length cDNA) in the positive phage was subcloned to pBS vector; expressed in transfected cells; host or cells: transgenic carrot cells (sense transformant, pBI121, CaMV 35S promoter); membrane fraction
T1 sequence (Q8LPB4 25-1021): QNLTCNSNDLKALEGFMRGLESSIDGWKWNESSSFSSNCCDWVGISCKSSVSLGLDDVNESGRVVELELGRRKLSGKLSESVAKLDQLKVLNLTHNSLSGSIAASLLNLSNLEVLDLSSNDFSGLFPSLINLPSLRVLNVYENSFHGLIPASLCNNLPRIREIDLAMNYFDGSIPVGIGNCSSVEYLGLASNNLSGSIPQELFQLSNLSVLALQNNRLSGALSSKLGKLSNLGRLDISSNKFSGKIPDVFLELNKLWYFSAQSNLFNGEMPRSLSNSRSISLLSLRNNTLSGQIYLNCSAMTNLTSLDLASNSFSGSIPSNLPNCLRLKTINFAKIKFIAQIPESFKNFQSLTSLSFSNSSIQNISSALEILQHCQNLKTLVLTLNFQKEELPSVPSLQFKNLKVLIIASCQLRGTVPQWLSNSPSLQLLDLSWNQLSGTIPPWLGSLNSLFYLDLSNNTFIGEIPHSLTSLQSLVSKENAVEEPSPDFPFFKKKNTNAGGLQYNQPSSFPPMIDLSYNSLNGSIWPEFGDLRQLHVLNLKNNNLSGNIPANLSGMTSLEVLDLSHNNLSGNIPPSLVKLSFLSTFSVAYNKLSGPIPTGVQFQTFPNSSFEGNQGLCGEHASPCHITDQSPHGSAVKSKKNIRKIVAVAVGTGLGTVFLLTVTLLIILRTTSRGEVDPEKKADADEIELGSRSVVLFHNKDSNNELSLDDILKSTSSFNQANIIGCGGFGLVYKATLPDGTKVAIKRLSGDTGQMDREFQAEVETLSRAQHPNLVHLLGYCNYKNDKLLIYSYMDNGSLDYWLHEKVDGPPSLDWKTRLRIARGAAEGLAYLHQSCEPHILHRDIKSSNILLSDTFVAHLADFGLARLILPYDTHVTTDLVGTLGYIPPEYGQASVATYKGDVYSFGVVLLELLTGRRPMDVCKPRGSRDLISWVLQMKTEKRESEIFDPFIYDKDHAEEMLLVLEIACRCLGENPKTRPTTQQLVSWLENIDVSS
Procedure: The specificity of the PSK binding activity was characterized by comparing the relative binding affinity for several PSK analogs. […] The membrane proteins were incubated in binding buffer containing 6.3 nM [^3H]PSK and 3.2 μM of the competitor .

[2] = target: T1, PSK receptor (120-kD receptor kinase); experiment: specific binding of PSK to membrane fractions, Scatchard plot; parameters: species or system carrot
[3] = tested on: transgenic carrot cells overexpressing the receptor protein (sense transformants); experiment: callus growth of transgenic carrot cells in response to PSK; assay type: cell-based; conditions: 10 nM PSK, 3 weeks on B5 media with NAA 1.0 mg/liter and 6-BA 0.5 mg/liter
Procedure: The chimeric genes were composed of the receptor kinase ORF, in the sense or antisense orientation, under the control of the constitutive cauliflower mosaic virus 35S promoter incorporated within the binary vector pBI 121. Transformation of carrot hypocotyl segments and plant regeneration were performed following a protocol described elsewhere (M. Hardegger, A. Sturm, Mol. Breed. 4, 119 (1998)). Carrot cells transformed with the binary vector alone were used as controls. Analysis of variance of the growth data was carried out using the Student's t-test procedure of the Prism software (GraphPad Software).
The cDNA of the aforementioned protein was overexpressed in transgenic carrot cells, in sense orientation, under the control of the cauliflower mosaic virus 35S promoter. […] These phenotypes are consistent with the hypothesis that overexpression and antisense inhibition of this receptor protein alter the responsive property of carrot cells to PSK. FIGS. 6A to 6C show the callus growth of the sense transformants, the control cells, and antisense transformants exposed to 10 nM PSK, respectively. The transformed carrot cells and the control cells were cultured for 3 weeks on B5 media containing naphthaleneacetic acid (NAA, 1.0 mg/liter), 6-benzylamino purine (6-BA, 0.5 mg/liter), and 10 nM PSK. The scale bar in FIG. 6C represents 1 cm.

[4] = target: PSK receptor protein (120-kD receptor kinase of carrot) (carrot) (UniProt Q8LPB4); experiment: [3H]PSK saturation binding to membrane fractions of sense transformants, Scatchard plot
[5] = target: PSK receptor protein (120-kD receptor kinase of carrot) (carrot) (UniProt Q8LPB4); experiment: [3H]PSK saturation binding to membrane fractions of control carrot cells (endogenous receptor), Scatchard plot
[6] = target: T2, PSK receptor protein (120-kD receptor kinase of carrot) (carrot, UniProt Q8LPB4 25-1021, N-linked oligosaccharide chains of approximately 10 kD (cleaved by PNGase F)); experiment: affinity chromatography on [Lys5]PSK-Sepharose, elution with PSK, SDS-PAGE
T2 construct: Assayed in membrane fractions of carrot cells (sense transformants overexpressing the ORF; control cells with the endogenous protein) or solubilized from carrot NC cell microsomal membranes; also called phytosulfokine receptor; 120-kD protein
T2 sequence: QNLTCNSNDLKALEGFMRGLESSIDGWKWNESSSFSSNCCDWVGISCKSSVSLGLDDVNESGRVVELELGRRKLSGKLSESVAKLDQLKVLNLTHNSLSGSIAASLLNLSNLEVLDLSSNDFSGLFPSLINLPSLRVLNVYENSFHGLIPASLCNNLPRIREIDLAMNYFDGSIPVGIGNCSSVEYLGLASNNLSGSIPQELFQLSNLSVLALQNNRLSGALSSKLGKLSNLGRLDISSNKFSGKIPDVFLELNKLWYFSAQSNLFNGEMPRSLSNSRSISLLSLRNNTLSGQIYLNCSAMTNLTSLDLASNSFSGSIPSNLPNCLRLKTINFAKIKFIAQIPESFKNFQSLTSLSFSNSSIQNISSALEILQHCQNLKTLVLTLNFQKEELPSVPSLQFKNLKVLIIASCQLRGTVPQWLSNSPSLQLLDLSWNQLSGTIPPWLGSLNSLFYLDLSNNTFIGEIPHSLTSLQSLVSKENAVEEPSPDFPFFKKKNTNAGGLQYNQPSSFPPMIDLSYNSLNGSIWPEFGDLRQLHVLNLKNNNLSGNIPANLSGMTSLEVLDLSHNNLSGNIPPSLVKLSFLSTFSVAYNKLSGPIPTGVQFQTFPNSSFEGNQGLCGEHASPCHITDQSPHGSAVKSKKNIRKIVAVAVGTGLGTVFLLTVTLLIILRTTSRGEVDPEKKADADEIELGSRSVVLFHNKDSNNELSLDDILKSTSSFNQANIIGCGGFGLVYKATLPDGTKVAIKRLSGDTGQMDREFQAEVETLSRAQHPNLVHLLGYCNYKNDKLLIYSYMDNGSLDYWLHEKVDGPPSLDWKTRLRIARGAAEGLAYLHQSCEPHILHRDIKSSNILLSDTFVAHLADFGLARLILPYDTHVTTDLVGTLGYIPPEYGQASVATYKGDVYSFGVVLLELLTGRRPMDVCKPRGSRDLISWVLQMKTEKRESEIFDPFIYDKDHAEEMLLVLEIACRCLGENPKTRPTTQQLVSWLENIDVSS
Procedure: Carrot microsomal membranes (1,200 mg protein) were solubilized in 320 ml of buffer containing 20 mM HEPES-KOH (pH 7.5), 50 mM KCl, and 1.0% Triton X-100 (buffer A). Solubilized materials were centrifuged at 100,000 g for 30 min at 4° C., and supernatants were applied to the [Lys⁵]PSK-Sepharose column (5.0 ml) at a flow rate of 0.5 ml/min using the AKTA prime chromatography system (Amersham Pharmacia Biotech). After washing with 50 ml of buffer containing 20 mM HEPES-KOH (pH 7.5), 50 mM KCl, and 0.1% Triton X-100 (buffer B), the column was eluted with 15 ml of 1.0 mg/ml PSK in buffer B. The eluates were added to a 1.0-ml column of Macro-Prep Ceramic Hydroxyapatite Type I (Bio-Rad laboratories) at a flow rate of 0.5 ml/min at 4° C. The column was washed with 20 ml of buffer B and eluted with a 18-ml gradient of KH₂PO₄ (0 to 400 mM) in buffer B. Active fractions (12 ml), as determined by [³H]PSK binding assay, were concentrated by ultrafiltration (Ultrafree-15 with Biomax-10 membranes, Millipore) and analyzed by SDS-PAGE using 7.5% gels (Y. Matsubayashi, Y. Sakagami, Eur. J. Biochem. 262, 666 (1999)).
The PSK-binding proteins were purified with [Lys⁵] PSK-Sepharose column. The purified proteins were further purified by hydroxyapatite column chromatography, concentrated and subjected to SDS-PAGE and Nile red staining.

[7] = membrane fractions of control cells (binary vector alone)
[8] = membrane fractions of sense transformant

Molecule: CC[C@H](C)[C@H](NC(=O)[C@@H](N)Cc1ccc(OS(=O)(=O)O)cc1)C(=O)N[C@@H](Cc1ccc(OS(=O)(=O)O)cc1)C(=O)N[C@H](C(=O)N[C@@H](CCC(N)=O)C(=O)O)[C@@H](C)O [PSK, phytosulfokine] (H-[sY]I[sY]TQ-OH; N-terminus and C-terminus assumed)
inhibition of binding of [3H]PSK to the membrane fraction of the sense transformant [1]: strongly inhibited
Bmax (maximum number of binding sites) [2, 7]: 34±2 fmol per mg of membrane protein
Kd [2, 7]: 4.8 ± 1.1 nM
Bmax (maximum number of binding sites) [2, 8]: 570±18 fmol per mg of membrane protein
Kd [2, 8]: 4.1 ± 0.5 nM
callus growth in response to PSK, compared with control cells [3]: accelerated growth

Molecule: [1-4]PSK: less active analog of PSK (YIYT)
inhibition of binding of [3H]PSK to the membrane fraction of the sense transformant [1]: less strongly inhibited

Continued, values first:

Bmax (fmol per mg of membrane protein) [4]: 570
Bmax (fmol per mg of membrane protein) [5]: 34
Molecule: phytosulfokine (PSK) (peptide)

binding result [6]: binds
Molecule: [sY]I[sY]TK([Ahx-Ahx-Ahx-Sepharose]) (also: Lys5 side chain coupled via Ahx spacer to Sepharose) [[Lys5]PSK-Sepharose]
